24 compounds from patent US8669271B2 (Boehringer Ingelheim International GmbH, priority 2010, dated 2014) can be followed below.

The target in this test is T1, human GPR119 (Homo sapiens, UniProt Q8TDV5).
T1 construct: expression vector for human GPR119 cDNA (Acc. No. NP_848566); expressed in transfected cells
T1 sequence (Q8TDV5 1-335): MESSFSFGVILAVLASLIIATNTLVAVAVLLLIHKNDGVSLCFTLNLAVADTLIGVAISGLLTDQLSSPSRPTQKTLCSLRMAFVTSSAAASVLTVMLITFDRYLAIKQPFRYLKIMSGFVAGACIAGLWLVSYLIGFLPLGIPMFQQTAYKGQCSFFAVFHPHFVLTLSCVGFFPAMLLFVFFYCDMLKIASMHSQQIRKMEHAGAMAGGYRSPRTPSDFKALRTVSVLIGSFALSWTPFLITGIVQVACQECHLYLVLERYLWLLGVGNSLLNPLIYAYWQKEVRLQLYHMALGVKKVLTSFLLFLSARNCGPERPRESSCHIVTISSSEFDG
The test is described as follows: AlphaScreen cAMP assay in Min-6/hGPR119 cells (activation of GPR119, intracellular cAMP). In kind it is cell-based. Conditions: MIN6 cells stably transfected with human GPR119; cAMP by AlphaScreen after 45 minutes incubation at room temperature. As for the experimental part:
The compounds of formula I according to the invention modulate the activity of the G-protein-coupled receptor GPR119. The effect of the compounds on the activation of GPR119 and on the stimulation of intracellular cAMP concentration is determined using the AlphaScreen cAMP Assay Kit (Cat.No.#6760625R) made by PerkinElmer.
MIN6 cells [Miyazaki J et al. Endocrinology. 1990 July; 127(1):126-32] are stably transfected with an expression vector for human GPR119 cDNA (Acc. No. NP_848566). Min-6/hGPR119 cells are cultured in DMEM, 10% FBS, 50 μM β-mercaptoethanol, 0.3 mg/mL Geniticin, 2 mM GlutaMAX at 37° C. 5% CO2. For the assay, the cells are seeded in Optiplates (white, 384-well, 160W— barcoded, TC, sterile with lid, Cat.No.#6007688 (Perkin Elmer); 10000 cells/well; 50 μl). The plates covered with lids are then incubated for 24 hours at 37° C./5% CO2. After the medium is aspirated from the wells completely, 10 μl of the test compound are added, the compounds are diluted using stimulating buffer (140 mM NaCl, 3.6 mM KCl, 0.5 mM NaH2PO4, 0.5 mM MgSO4, 1.5 mM CaCl2, 10 mM Hepes, 5 mM NaHCO3; pH 7.4. 0.5 mM IBMX and 0.1% BSA, the final DMSO concentration is 1%). After 45 minutes incubation at room temperature (approx. 20° C.), the cAMP concentrations are determined using the AlphaScreen cAMP Assay Kit (Cat.No.#6760625R from PerkinElmer).
On the technique in general: Bead proximity is the source of the signal in Alpha formats.
For orientation: EC50 means the concentration needed to bring the measured effect to its halfway point. A high value points to lower potency in that assay. `CC(C)(C)OC(=O)N1CCC(C2Cc3cc(-c4ccc(C#N)cc4F)ncc3O2)CC1` (stereo not drawn) [Example 29, 4-[5-(4-Cyano-2-fluoro-phenyl)-2,3-dihydro-furo[2,3-c]pyridin-2-yl]-piperidine-1-carboxylic acid tert-butyl ester] returned an EC50 of 12 nM.

`CC(C)(C)OC(=O)N1CCC(C2Cc3cc(-c4ccc(S(N)(=O)=O)cc4)ncc3O2)CC1` (stereo not drawn) [Example 30, 4-[5-(4-Sulfamoyl-phenyl)-2,3-dihydro-furo[2,3-c]pyridin-2-yl]-piperidine-1-carboxylic acid tert-butyl ester] displayed an EC50 of 84 nM.

The compound `CC(C)(C)OC(=O)N1CCC(C2Cc3cc(-c4ccc(CC#N)cc4)ncc3O2)CC1` (stereo not drawn) [Example 31, 4-[5-(4-Cyanomethyl-phenyl)-2,3-dihydro-furo[2,3-c]pyridin-2-yl]-piperidine-1-carboxylic acid tert-butyl ester] came in with an EC50 of 39 nM.

Compound `CCNC(=O)c1ccc(-c2cc3c(cn2)OC(C2CCN(C(=O)OC(C)(C)C)CC2)C3)cc1` (stereo not drawn) [Example 32, 4-[5-(4-Ethylcarbamoyl-phenyl)-2,3-dihydro-furo[2,3-c]pyridin-2-yl]-piperidine-1-carboxylic acid tert-butyl ester] displayed an EC50 of 21 nM.

Turning to `CC(C)(C)OC(=O)N1CCC(C2Cc3cc(-c4cncnc4)ncc3O2)CC1` (stereo not drawn) [Example 33, 4-(5-Pyrimidin-5-yl-2,3-dihydro-furo[2,3-c]pyridin-2-yl)-piperidine-1-carboxylic acid tert-butyl ester], the EC50 was 190 nM. Compared with the last compound, the EC50 is about 9-fold higher.

`CC(C)(C)OC(=O)N1CCC(C2Cc3cc(-c4ccc(S(C)(=O)=O)c(F)c4)ncc3O2)CC1` (stereo not drawn) [Example 34, 4-[5-(3-Fluoro-4-methanesulfonyl-phenyl)-2,3-dihydro-furo[2,3-c]pyridin-2-yl]-piperidine-1-carboxylic acid tert-butyl ester] gave an EC50 of 9 nM. Against the preceding compound, the EC50 is about 21-fold lower.

In the case of `CC(C)(C)OC(=O)N1CCC(C2Cc3cc(-c4ccc(CS(C)(=O)=O)cc4F)ncc3O2)CC1` (stereo not drawn) [Example 35, 4-[5-(2-Fluoro-4-methanesulfonylmethyl-phenyl)-2,3-dihydro-furo[2,3-c]pyridin-2-yl]-piperidine-1-carboxylic acid tert-butyl ester], the EC50 was found to be 17 nM.

Compound `CNS(=O)(=O)c1ccc(-c2cc3c(cn2)OC(C2CCN(C(=O)OC(C)(C)C)CC2)C3)cc1` (stereo not drawn) [Example 36, 4-[5-(4-Methylsulfamoyl-phenyl)-2,3-dihydro-furo[2,3-c]pyridin-2-yl]-piperidine-1-carboxylic acid tert-butyl ester] registered an EC50 of 33 nM. This EC50 is about 1.9-fold higher than that of the compound before.

For the compound `CC(C)(C)OC(=O)N1CCC(C2Cc3cc(-c4ccc(NS(C)(=O)=O)cc4)ncc3O2)CC1` (stereo not drawn) [Example 37, 4-[5-(4-Methanesulfonylamino-phenyl)-2,3-dihydro-furo[2,3-c]pyridin-2-yl]-piperidine-1-carboxylic acid tert-butyl ester], it took 31 nM to reach a half-maximal effect (EC50).

Consider `Cc1noc(C)c1-c1cc2c(cn1)OC(C1CCN(C(=O)OC(C)(C)C)CC1)C2` (stereo not drawn) [Example 38, 4-[5-(3,5-Dimethyl-isoxazol-4-yl)-2,3-dihydro-furo[2,3-c]pyridin-2-yl]-piperidine-1-carboxylic acid tert-butyl ester], for which the EC50 stood at 573 nM.

Consider `CC(C)(C)OC(=O)N1CCC(C2Cc3cc(-c4cnco4)ncc3O2)CC1` (stereo not drawn) [Example 39, 4-(5-Oxazol-5-yl-2,3-dihydro-furo[2,3-c]pyridin-2-yl)-piperidine-1-carboxylic acid tert-butyl ester], for which the EC50 amounted to 152 nM.

In the case of `CC(C)(C)OC(=O)N1CCC(C2Cc3cc(-c4ccc(C(N)=O)cn4)ccc3O2)CC1` (stereo not drawn) [Example 40, 4-[5-(5-Carbamoyl-pyridin-2-yl)-2,3-dihydro-benzofuran-2-yl]-piperidine-1-carboxylic acid tert-butyl ester], the EC50 turned out to be 158 nM.

Compound `CC(C)(C)OC(=O)N1CCC(C2Cc3cc(-c4ccncc4)ncc3O2)CC1` (stereo not drawn) [Example 41, 4-(5-Pyridin-4-yl-2,3-dihydro-furo[2,3-c]pyridin-2-yl)-piperidine-1-carboxylic acid tert-butyl ester] came in with an EC50 of 34 nM. Against the preceding compound, the EC50 is about 4.6-fold lower.

Consider `CNC(=O)c1ccc(-c2ccc3c(c2)CC(C2CCN(C(=O)OC(C)(C)C)CC2)O3)nc1` (stereo not drawn) [Example 42, 4-[5-(5-Methylcarbamoyl-pyridin-2-yl)-2,3-dihydro-benzofuran-2-yl]-piperidine-1-carboxylic acid tert-butyl ester], for which the EC50 was determined as 64 nM. Against the preceding compound, the EC50 is about 1.9-fold higher.

As to `CC(C)(C)OC(=O)N1CCC(C2Cc3cc(-c4ccncc4C#N)ccc3O2)CC1` (stereo not drawn) [Example 43, 4-[5-(3-Cyano-pyridin-4-yl)-2,3-dihydro-benzofuran-2-yl]-piperidine-1-carboxylic acid tert-butyl ester], the EC50 is 269 nM.

As for `CC(C)(C)OC(=O)N1CCC(C2Cc3cc(-c4ccc(C#N)nc4)ncc3O2)CC1` (stereo not drawn) [Example 44, 4-[5-(6-Cyano-pyridin-3-yl)-2,3-dihydro-furo[2,3-c]pyridin-2-yl]-piperidine-1-carboxylic acid tert-butyl ester], the midpoint of the response, the EC50, lay at 30 nM.

`CC(C)(C)OC(=O)N1CCC(C2Cc3cc(-c4cccnc4)ncc3O2)CC1` (stereo not drawn) [Example 45, 4-(5-Pyridin-3-yl-2,3-dihydro-furo[2,3-c]pyridin-2-yl)-piperidine-1-carboxylic acid tert-butyl ester] returned an EC50 of 410 nM.

For the compound `CC(C)(C)OC(=O)N1CCC(C2Cc3cc(-c4ccc(C#N)cc4)ncc3O2)CC1` (stereo not drawn) [Example 46, 4-[5-(4-Cyano-phenyl)-2,3-dihydro-furo[2,3-c]pyridin-2-yl]-piperidine-1-carboxylic acid tert-butyl ester], the midpoint of the response, the EC50, lay at 15 nM.

In turn, `CC(C)(C)OC(=O)N1CCC(C2Cc3cc(-c4ccnc(F)c4)ncc3O2)CC1` (stereo not drawn) [Example 47, 4-[5-(2-Fluoro-pyridin-4-yl)-2,3-dihydro-furo[2,3-c]pyridin-2-yl]-piperidine-1-carboxylic acid tert-butyl ester] yielded an EC50 of 8 nM.

`CC(C)(C)OC(=O)N1CCC(C2Cc3cc(-c4ccc(CS(C)(=O)=O)cn4)ccc3O2)CC1` (stereo not drawn) [Example 48, 4-[5-(5-Methanesulfonylmethyl-pyridin-2-yl)-2,3-dihydro-benzofuran-2-yl]-piperidine-1-carboxylic acid tert-butyl ester] came in with an EC50 of 53 nM.

In the case of `CC(C)(C)OC(=O)N1CCC(C2Cc3cc(-c4ccc(CS(C)(=O)=O)cc4)ncc3O2)CC1` (stereo not drawn) [Example 49, 4-[5-(4-Methanesulfonylmethyl-phenyl)-2,3-dihydro-furo[2,3-c]pyridin-2-yl]-piperidine-1-carboxylic acid tert-butyl ester], a half-maximal effect (EC50) was put at 22 nM.

`CC(C)(C)OC(=O)N1CCC(C2Cc3cc(-c4ccnnc4)ccc3O2)CC1` (stereo not drawn) [Example 50, 4-(5-Pyridazin-4-yl-2,3-dihydro-benzofuran-2-yl)-piperidine-1-carboxylic acid tert-butyl ester]: the EC50 is 161 nM.

`CC(C)(C)OC(=O)N1CCC(C2Cc3cc(-c4ccncc4F)ncc3O2)CC1` (stereo not drawn) [Example 51, 4-[5-(3-Fluoro-pyridin-4-yl)-2,3-dihydro-furo[2,3-c]pyridin-2-yl]-piperidine-1-carboxylic acid tert-butyl ester] came in with an EC50 of 10 nM.

Turning to `Cc1cc(-c2cc3c(cn2)OC(C2CCN(C(=O)OC(C)(C)C)CC2)C3)ccn1` (stereo not drawn) [Example 52, 4-[5-(2-Methyl-pyridin-4-yl)-2,3-dihydro-furo[2,3-c]pyridin-2-yl]-piperidine-1-carboxylic acid tert-butyl ester], the EC50 is 49 nM. This EC50 lies about 4.9-fold higher than the previous one.
